Laboratory results as given in ChEMBL document CHEMBL1201861, “Genomics of Drug Sensitity in Cancer screening data, Wellcome Trust Sanger Institute”.
pIC50: −log10 of the molar value.

Key:
Experiment in all cases: cells
A-375 = type: functional, cell-based, Homo sapiens; settings: Homo sapiens, A-375;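 further: growth inhibition of A375 cells, read out with a cell viability assay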
Description: SANGER: Inhibition of human A375 cell growth in a cell viability assay.

HCC2218 = type: functional, cell-based; settings: Homo sapiens;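 further: cell viability assay read-out, with IC50 given as the concentration that inhibits growth of the cell line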
Description: SANGER: Inhibition of human HCC2218 cell growth in a cell viability assay.

COLO-741 = type: functional, cell-based, Homo sapiens; settings: Homo sapiens, COLO-741
Description: SANGER: Inhibition of human COLO-741 cell growth in a cell viability assay.

BPH-1 = type: functional, cell-based, Homo sapiens; settings: Homo sapiens, BPH-1;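 further: cell viability assay measuring growth inhibition of human BPH-1 cells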
Description: SANGER: Inhibition of human BPH-1 cell growth in a cell viability assay.

J82 = type: functional, cell-based; settings: Homo sapiens;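 further: growth inhibition of J82 cells, read out with a cell viability assay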
Description: SANGER: Inhibition of human J82 cell growth in a cell viability assay.

SNU-5 = type: functional, cell-based; settings: Homo sapiens;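 further: cell viability readout used to measure growth inhibition in human NCI-SNU-5 cells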
Description: SANGER: Inhibition of human NCI-SNU-5 cell growth in a cell viability assay.

LU-139 = type: functional, cell-based; settings: Homo sapiens
Description: SANGER: Inhibition of human LU-139 cell growth in a cell viability assay.

639-V = type: functional, cell-based, Homo sapiens; settings: Homo sapiens, 639-V;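 further: growth inhibition of 639-V cells, read out with a cell viability assay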
Description: SANGER: Inhibition of human 639-V cell growth in a cell viability assay.

U-118-MG = type: functional, cell-based, Homo sapiens; settings: Homo sapiens, U-118-MG
Description: SANGER: Inhibition of human U-118-MG cell growth in a cell viability assay.

CW-2 = type: functional, cell-based, Homo sapiens; settings: Homo sapiens, CW-2;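 further: growth inhibition of CW-2 cells, read out by a cell viability assay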
Description: SANGER: Inhibition of human CW-2 cell growth in a cell viability assay.

PA-1 = type: functional, cell-based, Homo sapiens; settings: Homo sapiens, PA-1;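 further: IC50 for suppression of PA-1 cell proliferation, determined with a cell viability read-out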
Description: SANGER: Inhibition of human PA-1 cell growth in a cell viability assay.

EFO-21 = type: functional, cell-based, Homo sapiens; settings: Homo sapiens, EFO-21;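 further: growth inhibition of EFO-21 cells measured with a viability assay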
Description: SANGER: Inhibition of human EFO-21 cell growth in a cell viability assay.

JAR = type: functional, cell-based, Homo sapiens; settings: Homo sapiens, JAR;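 further: growth inhibition of human JAR cells determined with a cell viability assay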
Description: SANGER: Inhibition of human JAR cell growth in a cell viability assay.

SW48 = type: functional, cell-based, Homo sapiens; settings: Homo sapiens, SW48;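 further: growth inhibition of SW48 cells, read out with a cell viability assay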
Description: SANGER: Inhibition of human SW48 cell growth in a cell viability assay.

ME-180 = type: functional, cell-based; settings: Homo sapiens;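 further: cell viability assay measuring growth inhibition of ME-180 cells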
Description: SANGER: Inhibition of human ME-180 cell growth in a cell viability assay.

LXF-289 cell line = type: functional, cell-based, Homo sapiens; settings: Homo sapiens, LXF-289
Description: SANGER: Inhibition of human LXF-289 cell growth in a cell viability assay.

HCC 2998 = type: functional, cell-based, Homo sapiens; settings: Homo sapiens, HCC 2998;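 further: growth inhibition of human HCC2998 cells, measured with a cell viability read-out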
Description: SANGER: Inhibition of human HCC2998 cell growth in a cell viability assay.

MOLT-4 = type: functional, cell-based; settings: Homo sapiens;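 further: growth inhibition of MOLT-4 cells, determined with a cell viability readout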
Description: SANGER: Inhibition of human MOLT-4 cell growth in a cell viability assay.

NCI-H520 = type: functional, cell-based, Homo sapiens; settings: Homo sapiens, NCI-H520;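 further: growth inhibition of NCI-H520 cells, measured by a cell viability assay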
Description: SANGER: Inhibition of human NCI-H520 cell growth in a cell viability assay.

NCI-H441 = type: functional, cell-based; settings: Homo sapiens;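 further: growth inhibition of NCI-H441 cells, read out with a cell viability assay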
Description: SANGER: Inhibition of human NCI-H441 cell growth in a cell viability assay.

RCM-1 = type: functional, cell-based, Homo sapiens; settings: Homo sapiens, RCM-1;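 further: growth inhibition of the RCM-1 line, determined with a cell viability readout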
Description: SANGER: Inhibition of human RCM-1 cell growth in a cell viability assay.

MIA PaCa-2 = type: functional, cell-based, Homo sapiens; settings: Homo sapiens, MIA PaCa-2;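 further: growth inhibition of MIA PaCa-2 cells, read out with a cell viability assay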
Description: SANGER: Inhibition of human MIA-PaCa-2 cell growth in a cell viability assay.

T47D = type: functional, cell-based, Homo sapiens; settings: Homo sapiens, T47D;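 further: growth inhibition of human T47D cells, measured with a cell viability assay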
Description: SANGER: Inhibition of human T47D cell growth in a cell viability assay.

SF-268 = type: functional, cell-based, Homo sapiens; settings: Homo sapiens, SF-268;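 further: growth inhibition of SF-268 cells determined with a cell viability assay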
Description: SANGER: Inhibition of human SF268 cell growth in a cell viability assay.

IGR-1 = type: functional, cell-based, Homo sapiens; settings: Homo sapiens, IGR-1;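 further: growth inhibition of human IGR-1 cells, read out with a cell viability assay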
Description: SANGER: Inhibition of human IGR-1 cell growth in a cell viability assay.

Ramos-2G6-4C10 = type: functional, cell-based; settings: Homo sapiens;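 further: growth inhibition of the cell line, measured by a cell viability read-out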
Description: SANGER: Inhibition of human Ramos-2G6-4C10 cell growth in a cell viability assay.

ACHN = type: functional, cell-based, Homo sapiens; settings: Homo sapiens, ACHN;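 further: cell viability read-out used to gauge how strongly growth of human ACHN cells is suppressed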
Description: SANGER: Inhibition of human ACHN cell growth in a cell viability assay.

HOP-92 = type: functional, cell-based, Homo sapiens; settings: Homo sapiens, HOP-92;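 further: cell viability readout, with IC50 reflecting inhibition of HOP-92 cell growth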
Description: SANGER: Inhibition of human HOP-92 cell growth in a cell viability assay.

NCI-H446 = type: functional, cell-based; settings: Homo sapiens;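 further: growth inhibition of NCI-H446 cells determined by a cell viability assay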
Description: SANGER: Inhibition of human NCI-H446 cell growth in a cell viability assay.

SNU1 = type: functional, cell-based; settings: Homo sapiens;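 further: growth inhibition of human NCI-SNU-1 cells, measured with a cell viability assay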
Description: SANGER: Inhibition of human NCI-SNU-1 cell growth in a cell viability assay.

ES4 = type: functional, cell-based, Homo sapiens; settings: Homo sapiens, ES4;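 further: growth inhibition of human ES4 cells, read out by a cell viability assay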
Description: SANGER: Inhibition of human ES4 cell growth in a cell viability assay.

G-402 = type: functional, cell-based, Homo sapiens; settings: Homo sapiens, G-402
Description: SANGER: Inhibition of human G-402 cell growth in a cell viability assay.

RPMI-8226 = type: functional, cell-based; settings: Homo sapiens
Description: SANGER: Inhibition of human RPMI-8226 cell growth in a cell viability assay.

COLO-684 = type: functional, cell-based; settings: Homo sapiens
Description: SANGER: Inhibition of human COLO-684 cell growth in a cell viability assay.

RMG-I = type: functional, cell-based, Homo sapiens; settings: Homo sapiens, RMG-I;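 further: growth inhibition of human RMG-I cells, read out with a cell viability assay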
Description: SANGER: Inhibition of human RMG-I cell growth in a cell viability assay.

KYSE-150 cell line = type: functional, cell-based, Homo sapiens; settings: Homo sapiens, KYSE-150;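 further: growth inhibition of human KYSE-150 cells, read out with a cell viability assay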
Description: SANGER: Inhibition of human KYSE-150 cell growth in a cell viability assay.

MEG-01 = type: functional, cell-based; settings: Homo sapiens;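 further: growth inhibition of MEG-01 cells, read out by a cell viability assay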
Description: SANGER: Inhibition of human MEG-01 cell growth in a cell viability assay.

HCC1569 = type: functional, cell-based, Homo sapiens; settings: Homo sapiens, HCC1569;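 further: growth inhibition of human HCC1569 cells, read out with a cell viability assay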
Description: SANGER: Inhibition of human HCC1569 cell growth in a cell viability assay.

SW1990 = type: functional, cell-based, Homo sapiens; settings: Homo sapiens, SW1990;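 further: cell growth inhibition determined with a viability assay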
Description: SANGER: Inhibition of human SW1990 cell growth in a cell viability assay.

NCI-H1437 = type: functional, cell-based, Homo sapiens; settings: Homo sapiens, NCI-H1437;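 further: growth inhibition of human NCI-H1437 cells, read out by a cell viability assay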
Description: SANGER: Inhibition of human NCI-H1437 cell growth in a cell viability assay.

HTC-C3 = type: functional, cell-based, Homo sapiens; settings: Homo sapiens, HTC-C3;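 further: inhibition of cell growth, read out with a cell viability assay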
Description: SANGER: Inhibition of human HTC-C3 cell growth in a cell viability assay.

NOS-1 = type: functional, cell-based, Homo sapiens; settings: Homo sapiens, NOS-1;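 further: growth inhibition of the human NOS-1 cell line, read out with a cell viability assay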
Description: SANGER: Inhibition of human NOS-1 cell growth in a cell viability assay.

HD-MY-Z = type: functional, cell-based, Homo sapiens; settings: Homo sapiens, HD-MY-Z;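 further: growth inhibition of HD-MY-Z cells, read out with a cell viability assay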
Description: SANGER: Inhibition of human HD-MY-Z cell growth in a cell viability assay.

SW780 = type: functional, cell-based, Homo sapiens; settings: Homo sapiens, SW780;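 further: growth inhibition of the cells, read out with a cell viability assay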
Description: SANGER: Inhibition of human SW780 cell growth in a cell viability assay.

CAKI-1 = type: functional, cell-based, Homo sapiens; settings: Homo sapiens, CAKI-1;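 further: growth inhibition of CAKI-1 cells, measured by a cell viability assay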
Description: SANGER: Inhibition of human CAKI-1 cell growth in a cell viability assay.

MDA-MB-175-VII = type: functional, cell-based, Homo sapiens; settings: Homo sapiens, MDA-MB-175-VII
BFTC-909 = type: functional, cell-based, Homo sapiens; settings: Homo sapiens, BFTC-909
Description: SANGER: Inhibition of human BFTC-909 cell growth in a cell viability assay.

VA-ES-BJ = type: functional, cell-based, Homo sapiens; settings: Homo sapiens, VA-ES-BJ;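 further: growth inhibition of the VA-ES-BJ cell line, read out by a cell viability assay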
Description: SANGER: Inhibition of human VA-ES-BJ cell growth in a cell viability assay.

T98G = type: functional, cell-based, Homo sapiens; settings: Homo sapiens, T98G;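 further: growth inhibition of T98G cells, read out by a cell viability assay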
Description: SANGER: Inhibition of human T98G cell growth in a cell viability assay.

COc1ccc(-c2ccc3c(N4CCOC[C@@H]4C)nc(N4CCOC[C@@H]4C)nc3n2)cc1CO [AZD-8055]
pIC50 (A-375): 6.12 | pIC50 (HCC2218): 6.68 | pIC50 (COLO-741): < 5.70 | pIC50 (BPH-1): 6.05 | pIC50 (J82): < 5.70 | pIC50 (SNU-5): < 5.70 | pIC50 (LU-139): 7.63 | pIC50 (639-V): < 5.70 | pIC50 (U-118-MG): 5.73 | pIC50 (CW-2): < 5.70 | pIC50 (PA-1): 6.47 | pIC50 (EFO-21): < 5.70 | pIC50 (JAR): < 5.70 | pIC50 (SW48): 5.96 | pIC50 (ME-180): 6.83 | pIC50 (LXF-289 cell line): 6.60 | pIC50 (HCC 2998): 5.71 | pIC50 (MOLT-4): 6.17 | pIC50 (NCI-H520): 6.46 | pIC50 (NCI-H441): < 5.70 | pIC50 (RCM-1): < 5.70 | pIC50 (MIA PaCa-2): 6.03 | pIC50 (T47D): 6.56 | pIC50 (SF-268): < 5.70 | pIC50 (IGR-1): < 5.70 | pIC50 (Ramos-2G6-4C10): 6.77 | pIC50 (ACHN): 5.72 | pIC50 (HOP-92): < 5.70 | pIC50 (NCI-H446): 5.88 | pIC50 (SNU1): 6.49 | pIC50 (ES4): 6.34 | pIC50 (G-402): 7.00 | pIC50 (RPMI-8226): 6.54 | pIC50 (COLO-684): 6.34 | pIC50 (RMG-I): < 5.70 | pIC50 (KYSE-150 cell line): 6.18 | pIC50 (MEG-01): < 5.70 | pIC50 (HCC1569): 6.07 | pIC50 (SW1990): 5.83 | pIC50 (NCI-H1437): 6.22 | pIC50 (HTC-C3): 6.14 | pIC50 (NOS-1): 6.39 | pIC50 (HD-MY-Z): 6.08 | pIC50 (SW780): 6.24 | pIC50 (CAKI-1): 6.13 | pIC50 (MDA-MB-175-VII): 6.24 | pIC50 (BFTC-909): 5.89 | pIC50 (VA-ES-BJ): 6.47 | pIC50 (T98G): 5.99
